Values after ≈ are worked out from the molar mass of the structure shown. Read-outs that look alike come from different tables or passages of the source.
Key:
Assay type in all cases: cell-based
[1] = system: Streptococcus haemolyticus A 1088; conditions: A1088, agar serial dilution, 24 hours at 37°C
[2] = system: Pseudomonas aeruginosa H 10; conditions: H10, agar serial dilution, 24 hours at 37°C
Salmonella dublin P 43 = conditions: Salmonella enterica, P43; agar serial dilution, 24 hours at 37°C
Proteus mirabilis H 3 = conditions: H3, agar serial dilution, 24 hours at 37°C
[3] = system: Pseudomonas aeruginosa 2396; conditions: agar serial dilution, 24 hours at 37°C
[4] = system: Haemophilus influenzae A 1030; assay: micro serial dilution test, MIC; conditions: A1030, micro serial dilution (between brackets), 30°C or 37°C, about 18 hours
Proteus mirabilis A 1200 = conditions: A1200, agar serial dilution, 24 hours at 37°C
[5] = system: Pseudomonas aeruginosa Wyeth A 1058; conditions: WYETHA1058, agar serial dilution, 24 hours at 37°C
[6] = system: Streptococcus faecalis L 80; conditions: Enterococcus faecalis, L80; agar serial dilution, 24 hours at 37°C
[7] = system: Staphylococcus aureus A 355'; conditions: agar serial dilution, 24 hours at 37°C
[8] = system: Diplococcus pneumoniae L 54; conditions: Streptococcus pneumoniae, L54; agar serial dilution, 24 hours at 37°C
Proteus rettgeri A 821 [9] = conditions: Providencia rettgeri, A821; agar serial dilution, 24 hours at 37°C
[10] = system: Klebsiella pneumoniae A 809; conditions: A809, agar serial dilution, 24 hours at 37°C
Proteus morganii 2241 = conditions: Morganella morganii, agar serial dilution, 24 hours at 37°C
[11] = system: Staphylococcus aureus A 2000; conditions: A2000, agar serial dilution, 24 hours at 37°C
Escherichia coli U 20 = conditions: U20, agar serial dilution, 24 hours at 37°C
[12] = system: Staphylococcus aureus A 321; conditions: A321, agar serial dilution, 24 hours at 37°C
[13] = system: Pasteurella multocida A 723; conditions: A723, agar serial dilution, 24 hours at 37°C
[14] = system: Staphylococcus aureus A 2001; conditions: A2001, agar serial dilution, 24 hours at 37°C
[15] = system: Salmonella typhimurium R172; conditions: Salmonella enterica, agar serial dilution, 24 hours at 37°C
[16] = system: Bacillus subtilis ATCC 6633; conditions: ATCC6633, agar serial dilution, 24 hours at 37°C
[17] = system: Streptococcus haemolyticus A 266; conditions: A266, agar serial dilution, 24 hours at 37°C
[18] = system: Salmonella typhimurium R 127; conditions: Salmonella enterica, agar serial dilution, 24 hours at 37°C
Proteus rettgeri A 821 [19] = assay: micro serial dilution test, MIC; conditions: Providencia rettgeri, A821; micro serial dilution (between brackets), 30°C or 37°C, about 18 hours

Row | SMILES | MIC [2] [µg/mL] | MIC (Salmonella dublin P 43) [µg/mL] | MIC (Proteus mirabilis H 3) [µg/mL] | MIC [3] [µg/mL] | MIC [4] [µg/mL] | MIC (Proteus mirabilis A 1200) [µg/mL] | MIC [5] [µg/mL] | MIC [6] [µg/mL] | MIC [7] [µg/mL] | MIC [8] [µg/mL] | MIC (Proteus rettgeri A 821 [9]) [µg/mL] | MIC [10] [µg/mL] | MIC (Proteus morganii 2241) [µg/mL] | MIC [11] [µg/mL] | MIC (Escherichia coli U 20) [µg/mL] | MIC [12] [µg/mL] | MIC [13] [µg/mL] | MIC [14] [µg/mL] | MIC [16] [µg/mL] | MIC [17] [µg/mL] | further results
1 | CCOC(=O)NS(=O)(=O)N[C@@H](C(=O)N[C@@H]1C(=O)N2[C@@H]1SC(C)(C)[C@@H]2C(=O)O)c1ccccc1 [XIX, D-6-[α-(ethoxycarbonylaminosulfonylamino)-benzylcarbonamido]-penicillanic acid] | > 100 | 50 (≈ 99.9 µM) | 25 (≈ 49.9 µM) | 100 (≈ 200 µM) | – | 25 (≈ 49.9 µM) | 50 (≈ 99.9 µM) | 25 (≈ 49.9 µM) | 50 (≈ 99.9 µM) | 3 (≈ 5.99 µM) | 3 (≈ 5.99 µM) | > 100 | > 100 | 12.5 (≈ 25 µM) | 100 (≈ 200 µM) | 3 (≈ 5.99 µM) | 0.5 (≈ 0.999 µM) | 6 (≈ 12 µM) | 1 (≈ 2 µM) | 0.25 (≈ 0.499 µM) | MIC [18]: 100 µg/mL (≈ 200 µM)
2 | CC(=NS(=O)(=O)N[C@@H](C(=O)N[C@@H]1C(=O)N2[C@@H]1SC(C)(C)[C@@H]2C(=O)O)c1ccccc1)N(C)C [XXI, D-6-[α-{1-(dimethylamino)-ethylideneamino-sulfonamido}-benzylcarbonamido]-penicillanic acid] | > 100 | 25 (≈ 50.2 µM) | 50 (≈ 100 µM) | 100 (≈ 201 µM) | 1.8 (≈ 3.62 µM) | 25 (≈ 50.2 µM) | > 100 | 3 (≈ 6.03 µM) | – | 0.75 (≈ 1.51 µM) | – | 100 (≈ 201 µM) | 25 (≈ 50.2 µM) | – | 100 (≈ 201 µM) | 1.5 (≈ 3.01 µM) | 0.75 (≈ 1.51 µM) | – | 0.12 (≈ 0.241 µM) | 0.12 (≈ 0.241 µM) | MIC (Proteus rettgeri A 821 [19]): 0.6 µg/mL (≈ 1.21 µM); MIC [15]: 100 µg/mL (≈ 201 µM)
3 | CCOC(=O)CNS(=O)(=O)NC(=O)N[C@@H](C(=O)N[C@@H]1C(=O)N2[C@@H]1SC(C)(C)[C@@H]2C(=O)O)c1ccccc1 [X, D-6-[α-{3-(ethoxycarbonylmethylaminosulfonyl)-ureido}-benzylcarbonamido]-penicillanic acid] | > 100 | 25 (≈ 44.8 µM) | 1.5 (≈ 2.69 µM) | 100 (≈ 179 µM) | – | 3 (≈ 5.38 µM) | 25 (≈ 44.8 µM) | 25 (≈ 44.8 µM) | 25 (≈ 44.8 µM) | 1.5 (≈ 2.69 µM) | < 0.75 | 100 (≈ 179 µM) | 50 (≈ 89.7 µM) | 12.5 (≈ 22.4 µM) | 25 (≈ 44.8 µM) | 3 (≈ 5.38 µM) | 0.25 (≈ 0.448 µM) | 12.5 (≈ 22.4 µM) | 1 (≈ 1.79 µM) | 0.25 (≈ 0.448 µM) | MIC [18]: 50 µg/mL (≈ 89.7 µM)

Further lines, with some results ahead:

Row | MIC [2] [µg/mL] | MIC (Salmonella dublin P 43) [µg/mL] | MIC (Proteus mirabilis H 3) [µg/mL] | MIC [3] [µg/mL] | MIC [4] [µg/mL] | MIC (Proteus mirabilis A 1200) [µg/mL] | MIC [5] [µg/mL] | MIC [6] [µg/mL] | MIC [7] [µg/mL] | MIC [8] [µg/mL] | MIC (Proteus rettgeri A 821 [9]) [µg/mL] | MIC [10] [µg/mL] | MIC (Proteus morganii 2241) [µg/mL] | MIC [11] [µg/mL] | MIC (Escherichia coli U 20) [µg/mL] | MIC [12] [µg/mL] | MIC [13] [µg/mL] | MIC [14] [µg/mL] | MIC [16] [µg/mL] | SMILES | MIC [17] [µg/mL] | further results
4 | > 100 | 12.5 (≈ 30.8 µM) | 25 (≈ 61.7 µM) | > 100 | 125 (≈ 308 µM) | 12.5 (≈ 30.8 µM) | > 100 | > 100 | 12.5 (≈ 30.8 µM) | 6 (≈ 14.8 µM) | 1.5 (≈ 3.7 µM) | 6 (≈ 14.8 µM) | 100 (≈ 247 µM) | 12.5 (≈ 30.8 µM) | 1.5 (≈ 3.7 µM) | 12.5 (≈ 30.8 µM) | 50 (≈ 123 µM) | 12.5 (≈ 30.8 µM) | 0.25 (≈ 0.617 µM) | CC(=O)OCC1=C(C(=O)O)N2C(=O)[C@@H](NC(=O)[C@H](N)c3ccccc3)[C@H]2SC1 [cephaloglycin, 7-(α-aminophenylacetamido) cephalosporanic acid, reference compound] | – | MIC [1]: 0.25 µg/mL (≈ 0.617 µM); MIC [15]: 12.5 µg/mL (≈ 30.8 µM)
5 | > 100 | 50 (≈ 98.1 µM) | 50 (≈ 98.1 µM) | > 100 | 125 (≈ 245 µM) | 12.5 (≈ 24.5 µM) | > 100 | 1.5 (≈ 2.94 µM) | 6 (≈ 11.8 µM) | 0.5 (≈ 0.981 µM) | – | > 100 | 50 (≈ 98.1 µM) | 6 (≈ 11.8 µM) | 100 (≈ 196 µM) | 1 (≈ 1.96 µM) | 0.5 (≈ 0.981 µM) | 3 (≈ 5.89 µM) | 0.12 (≈ 0.235 µM) | CN1CCCC1=NS(=O)(=O)N[C@@H](C(=O)N[C@@H]1C(=O)N2[C@@H]1SC(C)(C)[C@@H]2C(=O)O)c1ccccc1 [XXIII, D-6-[α-{1-(methylpyrrolidin-2-ylidene)-amino-sulfonamido}-benzylcarbonamido] -penicillanic acid] | 0.06 (≈ 0.118 µM) | MIC (Proteus rettgeri A 821 [19]): 0.9 µg/mL (≈ 1.77 µM); MIC [15]: 100 µg/mL (≈ 196 µM)
